Legend:
HCT-116 RAD21-mAC cells [1] = test: In situ Hi-C: contact domains and genome compartmentalization (Arrowhead corner score, eigenvector, sliding correlation score); assay type: cell-based, human
Text: Domains were annotated in both untreated and treated maps using Arrowhead (Durand et al., 2016b; Rao et al., 2014). Domains were called at 5 kb and 10 kb resolutions using default parameters and merged (retaining the 5 kb domain annotation for any pair of domains annotated in both the 5 kb and 10 kb annotations). Applicants annotated 9,845 domains in our untreated maps and 2,090 domains in our treated maps.
The most common method used for classifying Hi-C patterns is the principal component (PC) approach, which Applicants introduced in (Lieberman-Aiden et al., 2009). In this approach, each intrachromosomal contact matrix is converted to an observed/expected matrix, and the first principal component of this matrix is used to bifurcate the data into two clusters.
Applicants first calculated the first three principal components of the 25-kb resolution observed/expected matrix for each chromosome (constructed using Juicer) using scikit learn's RandomizedPCA function. Applicants chose the principal component most correlated with GC content and assigned sign such that the vector was positively correlated with the GC content vector. Applicants then calculated the correlation of the eigenvector for each chromosome between untreated and treated maps. The mean correlation was 0.968.
To identify transitions in compartment state at higher resolution, Applicants used a combination of techniques. First, Applicants calculated an edge score using an algorithm similar to Canny edge detection. For every 25 kb locus in the genome, Applicants looked at the corresponding column of the 25 kb log 2(observed/expected) matrix. For every pixel (i,j) in column j, Applicants calculated a gradient=[i,j:j+3]−[i,j−4,j−1]. Applicants then searched for stretches of at least 7 pixels in the column with a gradient x such that abs(x) was greater than 0.5. […] Finally, Applicants summed the number of pixels in a column belonging to an edge to calculate the edge score for a locus. Applicants then called local peaks in this track which could correspond to compartment state transitions since a compartment state transition at locus I will create an edge between locus i−1 and i.
As described in Section V.a.3 of Rao et al., 2014, this is akin to measures in finance that correlate returns of prices to identify similarities between stocks. To calculate this sliding derivative correlation score, Applicants calculated the gradient in the log 2(observed/expected) matrix over every boundary called in our edge score track. More specifically, for every locus i, and all boundaries j in boundary set J that were within 15 Mb of i, Applicants calculated the difference of mean ([j:j+5,i]) and mean ([j−6:j−1,i]). Applicants then calculated the Spearman correlation coefficient of these two vectors (one vector for the gradients at all boundaries j in J for the pixels upstream of i, and one vector for the pixels downstream of i). Applicants excluded the derivative signal at pixels not located at compartment state transitions as defined by the edge score to reduce noise, reasoning that pixels inside compartment intervals were unlikely to contribute meaningful rises/falls in contact probability. Similarly, Applicants only included pixels within 15 mb of i to reduce the noise arising from sparsity far off the diagonal.
Applicants then identified compartment boundaries by calling local peaks in the edge score track and local valleys in the sliding derivative correlation score track and merging the two peak call lists.
To assess the presence and strength of contact domains after auxin treatment, Applicants used the Arrowhead algorithm (Durand et al., 2016b; Rao et al., 2014). The Arrowhead algorithm calculates a corner score for every pixel, where higher corner score values represent a higher likelihood that a pixel is at the corner of a domain (see Section IV. a.3 of the Extended Experimental Procedures of Rao et al., 2014). […]

HCT-116 RAD21-mAC cells [2] = test: 3D-APA of higher-order Hi-C contacts between cohesin-independent loop anchors; assay type: cell-based, human; details: auxin-treated data, 131 intrachromosomal trios; none in untreated
Text: To probe this question, Applicants examined concatemers—that is, Hi-C reads which bring together 3 or more loci, and indicate that the loci in question were simultaneously co-located in a particular cell during the Hi-C experiment. Applicants identified 57 million unique “triples,” which bring together 3 loci; 32 million unique quadruples, and 130 thousand quintuples (FIG. 5B, see Methods). Instead of a 2-dimensional heatmap, concatemers are naturally represented as an n-dimensional matrix, or tensor, showing the collision frequency (i.e. the frequency of simultaneous physical contact) between any set of n loci in the genome (FIG. 5C). Hubs involving n loci manifest in the n-dimensional contact tensor as peaks in collision frequency with respect to the local n-dimensional neighborhood. […]
Analysis of higher order contacts. […] The Juicer pipeline (Durand, et al, 2016b) separately outputs abnormal chimeric read pairs (i.e. read pairs that map to more than 2 loci). Applicants combined all of the data from untreated RAD21-mAC cells and all our data from treated RAD21-mAC cells (unsynchronized and synchronized/arrested), parsed the chimeric abnormal reads and deduped them (using the same deduping procedure used in Juicer, only applied to three, four or five positions, rather than just two), retaining unique reads that mapped to three or more positions with MAPQ>=10. […]

O=C(O)Cc1c[nH]c2ccccc12 [auxin, indole-3-acetic acid]
dip in sliding correlation in treated cells, H3K27me3 transitions spanned by loop domains (HCT-116 RAD21-mAC cells [1]; 209 transitions, untreated 0.01 increase): 0.03
dip in sliding correlation in treated cells, H3K27Ac transitions spanned by loop domains (HCT-116 RAD21-mAC cells [1]; 264 transitions, untreated 0.02): 0.19
dip in sliding correlation in treated cells, H3K27Ac transitions at loop domain boundaries (HCT-116 RAD21-mAC cells [1]; 307 transitions, untreated 0.41): 0.49
decrease in sliding correlation score in treated cells, compartment boundaries contained within loop domains (HCT-116 RAD21-mAC cells [1]; 349 boundaries, untreated 0.10): 0.31
decrease in sliding correlation score in treated cells, H3K27Ac transitions at loop anchors (HCT-116 RAD21-mAC cells [1]; 381 transitions, untreated 0.10): 0.26
dip in sliding correlation in treated cells, H3K27me3 transitions at loop domain boundaries (HCT-116 RAD21-mAC cells [1]; 384 transitions, untreated 0.29): 0.33
decrease in sliding correlation score in treated cells, compartment boundaries at loop domain anchors (HCT-116 RAD21-mAC cells [1]; 389 boundaries, untreated 0.35): 0.53
decrease in sliding correlation score in treated cells, H3K27me3 transitions spanned by loops (HCT-116 RAD21-mAC cells [1]; 391 transitions, untreated 0.27): 0.31
decrease in sliding correlation score in treated cells, H3K27Ac transitions spanned by loops (HCT-116 RAD21-mAC cells [1]; 426 transitions, untreated 0.41): 0.50
decrease in sliding correlation score in treated cells, H3K27me3 transitions at loop anchors (HCT-116 RAD21-mAC cells [1]; 469 transitions, untreated 0.03): 0.12
mean Pearson's r of Hi-C correlation map eigenvectors, untreated vs auxin treated (HCT-116 RAD21-mAC cells [1]; across all chromosomes): 0.968
collisions in the center voxel of the 3D APA cube (three cohesin-independent loop anchors) (HCT-116 RAD21-mAC cells [2]): 11
